Experimental data reported in publication PMC12257542, “A Radiolabeled Photoswitchable G Protein-Coupled Receptor Antagonist Enlightens Ligand Binding Kinetics Associated with Photoswitching” (Journal of the American Chemical Society, 2025).
Values joined by “and” are separate entries in the source; they are usually repeats but may differ in a detail not shown here. Identical values can stand only once. Like-named read-outs stand apart in the source and are kept apart here.

Tests used:
[1] = Photostationary state area percentages by LC-MS at the isosbestic point; format: physicochemical; conditions: for PSScis (area %cis): after illumination of trans isomer with 365 ± 10 nm at 1 mM in DMSO for 10 min
[2] = UV-vis spectra of trans and PSS cis states in HBSS buffer; format: physicochemical; conditions: 25 μM in HBSS buffer containing 1% DMSO
Method: (§1) Experimental procedures – Photochemistry
UV−Vis spectra were recorded using a Thermo-scientific Evolution 201 PC spectrophotometer equipped with a thermostated cell holder set at 20 °C. Fits of UV−vis spectroscopy data were generated using Prism 10.1.0. Illumination for almost all photochemical experiments was executed using a Sutter instruments Lambda LS with a 300 W full-spectrum lamp connected to a Sutter instruments Lambda 10-3 optical filter changer equipped with 360 ± 10 nm, 434 ± 9 nm 494 ± 9 nm, or a Lambda 721 optical beam combiner system equipped with 365 ± 11 nm and 506 ± 14 nm filter. The light intensity used for the lambda 10-3 optical filter is 0.93 mW/mm2 using the 360 ± 20 nm filter, 0.79 mW/mm2 for the 434 ± 9 nm filter, 0.77 mW/mm2 for the 494 ± 9 nm filter as measured using a Thorlabs PM16−401 power meter. The light intensity used for the lambda 721 optical beam combiner is 200 mW using the 365 ± 11 nm filter and 60 mW for the 506 ± 12 nm filter. For photochemical analyses, illuminations were performed in Hellma Suprasil quartz 114QS cuvettes. For the dynamic illuminations, a 4-way cuvette holder (Avantes) was used. The left outlet of the holder is connected to an Avantes AvaLight-DH-S-BAL Deuterium lamp. The right outlet is connected through a fiber to an AvaSpec UV/Vis spectrometer. The lower outlet is connected to a Lambda 721 optical beam combiner system equipped with 365 ± 11 nm and 506 ± 14 nm filter illumination means. The upper outlet is covered with a black cap. The temperature of the solution in the cuvette (20 °C) is controlled by Q-blue Wireless Temperature Control software. […]
The typical distance […]
between light source and vial or cuvette was 2 cm.

[3] = Thermal relaxation of PSS cis states (Arrhenius extrapolation); format: physicochemical; conditions: approximate; HBSS buffer + 1% DMSO, extrapolated to 20 °C
Method: as §1
UV−Vis spectra were recorded using a Thermo-scientific Evolution 201 PC spectrophotometer equipped with a thermostated cell holder set at 20 °C. Fits of UV−vis spectroscopy data were generated using Prism 10.1.0. Illumination for almost all photochemical experiments was executed using a Sutter instruments Lambda LS with a 300 W full-spectrum lamp connected to a Sutter instruments Lambda 10-3 optical filter changer equipped with 360 ± 10 nm, 434 ± 9 nm 494 ± 9 nm, or a Lambda 721 optical beam combiner system equipped with 365 ± 11 nm and 506 ± 14 nm filter. The light intensity used for the lambda 10-3 optical filter is 0.93 mW/mm2 using the 360 ± 20 nm filter, 0.79 mW/mm2 for the 434 ± 9 nm filter, 0.77 mW/mm2 for the 494 ± 9 nm filter as measured using a Thorlabs PM16−401 power meter. The light intensity used for the lambda 721 optical beam combiner is 200 mW using the 365 ± 11 nm filter and 60 mW for the 506 ± 12 nm filter. For photochemical analyses, illuminations were performed in Hellma Suprasil quartz 114QS cuvettes. For the dynamic illuminations, a 4-way cuvette holder (Avantes) was used. The left outlet of the holder is connected to an Avantes AvaLight-DH-S-BAL Deuterium lamp. The right outlet is connected through a fiber to an AvaSpec UV/Vis spectrometer. The lower outlet is connected to a Lambda 721 optical beam combiner system equipped with 365 ± 11 nm and 506 ± 14 nm filter illumination means. The upper outlet is covered with a black cap. The temperature of the solution in the cuvette (20 °C) is controlled by Q-blue Wireless Temperature Control software.
Thermal relaxation experiments and Arrhenius extrapolations were performed according to Priimagi et al20, using a compound concentration of 25 μM in HBSS +1% DMSO and temperatures of 50, 60, and 70 °C. Illuminations for pharmacological experiments were performed in cylindrical clear glass vials with a volume of 4.5 mL. The typical distance between light source and vial or cuvette was 2 cm.

H3R [4] = biological target: T1, H3R (Homo sapiens, UniProt Q9Y5N1); test: [3H]NAMH competition radioligand binding on cell homogenates overexpressing H3R; conditions: for Fold Ki shift: (high-affinity state)/(low-affinity state); for Ki: [3H]NAMH competition, n = 3
T1 sequence (Q9Y5N1 whole entry): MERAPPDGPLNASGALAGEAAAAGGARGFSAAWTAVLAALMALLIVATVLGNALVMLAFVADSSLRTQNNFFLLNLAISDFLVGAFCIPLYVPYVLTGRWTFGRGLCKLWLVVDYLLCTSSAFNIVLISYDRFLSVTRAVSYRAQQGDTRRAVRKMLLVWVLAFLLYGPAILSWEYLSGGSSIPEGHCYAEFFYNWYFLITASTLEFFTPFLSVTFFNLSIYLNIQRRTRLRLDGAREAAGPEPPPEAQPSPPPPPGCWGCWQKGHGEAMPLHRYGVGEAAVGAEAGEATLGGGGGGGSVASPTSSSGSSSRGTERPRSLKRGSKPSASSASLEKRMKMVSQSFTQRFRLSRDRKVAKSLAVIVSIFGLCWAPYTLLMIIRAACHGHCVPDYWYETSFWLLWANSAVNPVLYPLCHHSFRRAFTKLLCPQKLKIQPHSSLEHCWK

H3R [5] = biological target: T1, H3R; format: binding
Method: (§2) To determine non-specific
(§3) specific binding from the total binding.
(§4) intervals ranging from 0-20 minutes.
(§5) was measured as described above.
(§6) model to obtain Kd values.

H3R [6] = biological target: T1, H3R; test: Association and dissociation radioligand binding experiments with [3H]3f; conditions: for dissociation t 1/2: t1/2 = ln 2/k off; for Kd: from k off/k on, read-out: pK d(k in) calculated kinetic affinity (converted)
Method: as §2, §3, §4, §5, §6

[7] = design: method as in Hauwert et al.; conditions: ref Hauwert et al., cited from earlier work
[8] = design: method as in Hauwert et al.; conditions: approximate, extrapolated to 20 °C; ref Hauwert et al.; cited from earlier work
[9] = design: method as in Hauwert et al.; conditions: 25 μM in HBSS buffer containing 1% DMSO; ref Hauwert et al.; cited from earlier work
H3R [10] = biological target: T1, H3R; conditions: ref Hauwert et al., cited from earlier work
hH3R = hH3R (Homo sapiens, UniProt Q9Y5N1); test: Competition binding of non-labeled ligands with trans-[3H]3f on hH3R-expressing cell homogenates
Sequence of hH3R (Q9Y5N1 whole entry): as above

H3R [11] = biological target: T1, H3R; test: Functional H3R NanoBiT-PKA (cAMP sensor) assay in transiently transfected HEK293T cells; format: cell-based; conditions: inhibition of forskolin-stimulated cAMP signal, agonist alone
[12] = illumination of PSS cis state with 506 ± 20 nm at 1 mM in DMSO for 10 min
[13] = ↓ lower affinity of PSS cis state than trans
[14] = ↑ higher affinity of PSS cis state than trans

## Cc1nn(C2CCCCC2)c(C)c1/N=N/c1ccc(O[C@H]2C[C@H](N3CCCCC3)C2)cc1 [Compound 3b]
[1]
  PSScis (area %cis): 88 area %
[1]; [12]
  PSStrans (area %trans): 94 area %
[2]
  λmax cis: 440 nm
  λmax trans: 351 nm
[3]
  Half-life (thermal relaxation of PSS cis state): 7 days
H3R [4]; [13]
  Fold Ki shift: 12.6 ↓ fold

## [3H]C([3H])([3H])N1CCC(n2nc(C)c(/N=N/c3ccc(O[C@H]4C[C@H](N5CCCCC5)C4)cc3)c2C)CC1 [[^3H]3f]
H3R [5]; prebound trans state 0.5 nM, no competitor present
  H3R binding remaining after exposure to 365 nm light: approximately 0%
H3R [5]; prebound trans state, 365 nm light, t1/2 = ln 2/k off
  dissociation t 1/2: 0.8 ± 0.2 min
H3R [5]; prebound trans, 365 nm light versus dissociation of dark trans-[3H]3f
  fold faster dissociation kinetics upon 365 nm illumination: 6.2 fold
H3R [6]; 0.5 nM trans state
  time at which binding to H3R reaches equilibrium: 15 min
H3R [6]; PSS cis state (preilluminated trans-[3H]3f)
  kon: 217000 M⁻¹ s⁻¹
H3R [6]; PSS cis state, clobenpropit
  dissociation t 1/2: 6.2 ± 0.2 min
H3R [6]; PSS cis state, clobenpropit, listed as [^3H]3f-PSS cis
  dissociation t 1/2: 6.2 ± 0.4 min
H3R [6]; PSS cis state, dissociation initiated with clobenpropit
  koff: 0.00183 s⁻¹
H3R [6]; PSS cis state
  Kd: 12.6 nM
H3R [6]; PSS cis versus trans
  fold lower k on value compared to trans-[3H]3f: 10 fold
H3R [6]; trans state, 0.5 nM
  kon: 2.15e+06 M⁻¹ s⁻¹
H3R [6]; trans state, clobenpropit (10 μM)
  dissociation t 1/2: 4.9 ± 0.4 min
H3R [6]; trans state, dissociation initiated with 10 μM clobenpropit
  koff: 0.0025 s⁻¹
H3R [6]; trans state
  Kd: 1.26 nM

## c1ccc(/N=N/c2ccc(OCCCN3CCCCC3)cc2)cc1 [Compound 1]
[7]; after illumination of trans isomer with 365 ± 10 nm
  PSScis (area %cis): 97 area %
[7]; illumination of PSS cis state with 434 ± 20 nm
  PSStrans (area %trans): 68 area %
[8]
  Half-life (thermal relaxation of PSS cis state): 11 days
[9]
  λmax cis: 432 nm
  λmax trans: 344 nm
H3R [10]; PSS cis state, [3H]NAMH competition
  pKi PSScis ± SEM: 8.1 ± 0.1
H3R [10]; trans isomer, [3H]NAMH competition
  pKi trans ± SEM: 7.3 ± 0.1
H3R [10]; [14]
  Fold Ki shift: 6.3 ↑ fold

## Cc1nn(C)c(C)c1/N=N/c1ccc(O[C@H]2C[C@H](N3CCCCC3)C2)cc1 [Compound 3a]
[1]
  PSScis (area %cis): 95 area %
[1]; [12]
  PSStrans (area %trans): 93 area %
[2]
  λmax cis: 439 nm
  λmax trans: 347 nm
[3]
  Half-life (thermal relaxation of PSS cis state): 18 days
H3R [4]; [13]
  Fold Ki shift: 7.9 ↓ fold
H3R [4]; trans isomers
  fold improved Ki value of trans isomer compared to trans-2: more than 10 fold

## c1nc(CC2CCNCC2)c[nH]1 [immepip, reference compound]
hH3R
  Ki: 3.16 nM

## Cc1nn(C2CCNCC2)c(C)c1/N=N/c1ccc(O[C@H]2C[C@H](N3CCCCC3)C2)cc1 [Compound 3e]
[1]
  PSScis (area %cis): 99 area %
[1]; [12]
  PSStrans (area %trans): 92 area %
[2]
  λmax cis: 434 nm
  λmax trans: 346 nm
[3]
  Half-life (thermal relaxation of PSS cis state): 29 days
H3R [4]; [13]
  Fold Ki shift: 25.1 ↓ fold
H3R [4]; pKi trans ± SEM, trans isomer
  Ki: 0.501 nM

## c1cc(Cc2cnc[nH]2)ccn1 [immethridine, reference compound]
H3R [11]
  EC50: 0.794 nM

## c1ccc(/N=N/c2ccc(O[C@H]3C[C@H](N4CCCCC4)C3)cc2)cc1 [Compound 2]
[1]
  PSScis (area %cis): 97 area %
[1]; illumination of PSS cis state with 434 ± 20 nm at 1 mM in DMSO for 10 min
  PSStrans (area %trans): 74 area %
[2]
  λmax cis: 425 nm
  λmax trans: 350 nm
[3]
  Half-life (thermal relaxation of PSS cis state): 2 days
H3R [4]; [14]
  Fold Ki shift: 4 fold and 4.0 ↑ fold
H3R [4]; pKi PSScis ± SEM, PSS cis state
  Ki: 2.51 nM

## Cc1nn(C2CCOCC2)c(C)c1/N=N/c1ccc(O[C@H]2C[C@H](N3CCCCC3)C2)cc1 [Compound 3c]
[1]
  PSScis (area %cis): 94 area %
[1]; [12]
  PSStrans (area %trans): 95 area %
[2]
  λmax cis: 440 nm
  λmax trans: 349 nm
[3]
  Half-life (thermal relaxation of PSS cis state): 25 days
H3R [4]; [13]
  Fold Ki shift: 20.0 ↓ fold
